Tested on: Sprague Dawley rats
Experiment: Lung lavage model of ARDS in ventilated rats: arterial oxygen partial pressure (PaO2)
Assay type: in vivo, rat
Settings: for PaO2: 120 min, mean ± SD
Source text: Anesthetized Sprague Dawley rats are artificially ventilated with pure oxygen and a positive endexiratory pressure (PEEP; in order to ensure oxygenation of the rats) and lavaged until their endogenous lung surfactant is washed out [D. Häfner, R. Beume, U. Kilian, G. Kraznai and Burkhard Lachmann: Dose-response comparison of five lung surfactant (LSF) preparations in an animal model of adult respiratory distress syndrome (ARDS); D. Häfner, P.-G. Germann, D. Hauschke, Pulmonary Pharmacology (1994) 7, 319-332]. This is manifested by the fact that in the animals the preliminary values of the arterial oxygen partial pressure (PaO2) of 500-550 mmHg (in the case of pure oxygen ventilation and PEEP) decrease to values of 50-110 mmHg. Animals of the control group which are not treated with lung surfactant remain with their PaO2 at these low values throughout the observation period. 60 minutes after the PaO2 has decreased to these values, lung surfactant or lung surfactant together with 4-(2,6-dichloroanilino)-3-thiopheneacetic acid is instilled intratracheally. The blood gases are determined 30, 60, 90 and 120 minutes after instillation.
In Table 1 below, in line A the average values (± standard deviation) of the PaO2 are indicated in mmHg for the time 120 minutes (constant PEEP of 8 cm H2O) after intratracheal instillation of lung surfactant 1 h after the last lavage. The table contains data about the values after a sole i.v. administration of 4-(2,6-dichloroanilino)-3-thiopheneacetic acid (Eltenac) in comparison to untreated controls. It can be seen from the table that the sole administration of Eltenac has no influence on the PaO2. This follows by comparison with the untreated control animals. The administration of lung surfactant (25 or 100 mg/kg) leads to a rise in the PaO2. […] In Table 2, in line A the PaO2 values after joint intratracheal (i.tr.) administration of lung surfactant together with Eltenac are indicated in increasing dosages. […]

O=C(O)Cc1cscc1Nc1c(Cl)cccc1Cl [Eltenac, 4-(2,6-dichloroanilino)-3-thiopheneacetic acid]
PaO2 (Eltenac i.tr. 3.0 mg/kg alone after last lavage): 92 ± 69 mmHg
PaO2 (Eltenac i.v. 22.1 mg/kg alone, directly after lavage, PEEP 8 cm H2O): 82 ± 35 mmHg
influence on the PaO2 (in words) (sole administration of Eltenac vs untreated control animals): no influence
